Measured values as given in patent US8575116B1, “Polyacetylenic compounds for protecting against pancreatic islet atrophy” (Academia Sinica, priority 2010, dated 2013).
“Also recorded” adds a separate entry of the source.

What was measured:
db/db mice [1] = test: Long-term treatment of diabetic db/db mice: blood glucose and blood insulin; format: in vivo, mouse
Procedure: (§1) FIGS. 1A-F show the anti-diabetic effects of cytopiloyne in db/db mice during long-term treatment. (A) Chemical structure of cytopiloyne (2-β-D-glucopyranosyloxy-1-hydroxytrideca-5,7,9,11-tetrayne). (B) Four groups of 6-to-8-week-old diabetic db/db mice were tube-fed with vehicle, cytopiloyne (CP, 0.5 and 2.5 mgkg^−1 day^−1) or glimepiride (GLM, 2.5 mgkg^−1 day^−1) from 0 to 42 days post-treatment. Blood glucose (BG) levels in these mice were measured. (C) Blood insulin levels from the mice of FIG. 1B. (D) IPGTT was performed in the db/db mice of FIG. 1B on day 0, 28 and 42, and blood glucose levels were monitored for 3.5 h. […] Results from 3 independent experiments are expressed as mean±SEM, and P<0.05 was considered to be statistically significant (*). […]
After 0.5 h, the levels of postprandial blood sugar and insulin from the mice were monitored for additional 4 h. For continued administration, diabetic db/db males were grouped and tube-fed with vehicle, cytopiloyne (0.5 or 2.5 mgkg^−1 day^−1) or glimepiride (2.5 mg kg^−1 day^−1) for the indicated time, while levels of blood sugar, insulin, and glycosylated HbA1c, and glucose tolerance in these mice were determined. […] Unless indicated otherwise, the mice were fasted for 16 h, then Postprandial blood glucose and insulin in these mice were measured. […]

[2] = test system: rat pancreatic islet cells; test: Intracellular staining for insulin and FACS in rat pancreatic islet cells; format: cell-based; details: 28 μM, brefeldin A, 24 h
Procedure: FIGS. 4A-C show an increase in insulin mRNA and protein content by cytopiloyne in pancreatic islet cells. (A) HIT-T15 β-cells transfected with phINS-Luc and pRL-TK plasmids were incubated with vehicle (NS), glimepiride (GLM, 10 μM), high glucose (HG, 16.7 mM) or cytopiloyne at 7, 14 or 28 μM. Ten μg of cell lysates from these cells underwent to dual luciferase assays. […] (C) Rat pancreatic islet cells were treated with vehicle, glucose (3.3 mM (LG) or 16.7 mM (HG)) or cytopiloyne (CP, 7, 14 and 28 μM) in the presence of brefeldin A for 24 h. After anti-insulin antibody staining, these cells underwent FACS analysis. The percentage of insulin-positive β-cells is shown. All the results from 3 independent experiments are expressed as mean±SEM, and P<0.05 was considered to be statistically significant (*).
The islets were disrupted into individual cells and underwent intracellular staining with anti-insulin antibody and FACS analysis.

db/db mice [3] = test: Intraperitoneal glucose tolerance test (IPGTT) in db/db mice; format: in vivo, mouse; details: 2.5 mgkg^−1 day^−1 for 6 weeks, day 42, db/db mice
Procedure: as §1, with “h. (E) The percentage of glycosylated HbAlc of whole blood from the mice of FIG. 1B on day 0 and 42. (F) Pancreata of 8- and 16-week-old db/db males, which had received the same treatment as FIG. 1B for 2 (images a-h) and 10 (images i-p) weeks, were stained with hematoxylin and eosin (H&E, images a, c, e, g, i, k, m and o) or hematoxylin and anti-insulin (H&I, images b, d, f, h, j, l, n and p).” for “h.”
Male db/db mice were administered either vehicle, cytopiloyne at 0.5 and 2.5 mgkg^−1 day^−1 or glimepiride at 2.5 mgkg^−1 day^−1 for the indicated time. […] The levels of blood sugar were monitored from −0.5 to 3 h after glucose administration.

Q: For `CC#CC#CC#CC#CCCC(CO)O[C@@H]1O[C@H](CO)[C@@H](O)[C@H](O)[C@H]1O` (stereo partly drawn) [cytopiloyne, 2-β-D-glucopyranosyloxy-1-hydroxytrideca-5,7,9,11-tetrayne], which “blood insulin levels, long-term treatment” value (db/db mice [1]; 0.5 and 2.5 mgkg^−1 day^−1, db/db mice (FIG. 1C)) is on record?
A: The value was “increased blood insulin levels to a greater extent than glimepiride”.

Q: And the “blood sugar-lowering / anti-diabetic effect compared with glimepiride 2.5 mgkg^−1” value (db/db mice [1]; 2.5 mgkg^−1 day^−1, long-term, fed db/db mice (FIG. 1B))?
A: The value was “slightly therapeutically better than glimepiride at 2.5 mgkg^−1; also recorded: modestly better anti-diabetic effects at the same dose”.

Q: What about the “intracellular insulin levels compared to the vehicle treatment” value [2] of the same molecule?
A: The value was “fivefold”.

Q: What about the “glucose tolerance (IPGTT)” value (db/db mice [3]) of the same molecule?
A: Its value is “improved glucose tolerance in db/db mice to a greater extent than glimepiride”.
